According to ChEMBL document CHEMBL6078725, “Discovery of novel xanthohumol C derivatives regulating XRCC2 transcription and expression for the treatment of colorectal cancer” (Bioorg Med Chem, 2025):
Calls of active or inactive are those of the source. No cut-off for these calls is given here.

Columns and labels:
[1] = system: HCT-116; assay: Antiproliferative activity against human HCT-116 cells incubated for 48 hrs by MTS assay; format: functional, cell-based; conditions: HCT-116, 48 h
[2] = system: RKO; assay: Antiproliferative activity against human RKO cells incubated for 48 hrs by MTS assay; format: functional, cell-based
[3] = system: HCT-116; assay: Antitumor activity against human HCT-116 cells xenografted in BALB/c mouse assessed as inhibition of tumor growth at 20 mg/kg, ip administered for 2 weeks; format: functional, organism-based

Structure (SMILES): COc1cc2c(c(O)c1C(=O)/C=C/c1ccc(O)cc1)C=CC(C)(C)O2 [XANTHOHUMOL C]
- IC50 [1]: 25.9 µM
- IC50 [2]: 28.5 µM

Structure (SMILES): COc1cc2c(c(O)c1C(=O)/C=C/c1ccc(C(C)C)cc1)C=CC(C)(C)O2
- IC50 [1]: 79.1 µM
- IC50 [2]: 69.5 µM

Structure (SMILES): COc1cc2c(c(O)c1C(=O)/C=C/c1cccc(N3CCN(C)CC3)c1)C=CC(C)(C)O2
- IC50 [1]: 12.5 µM
- IC50 [2]: 128 µM

Structure (SMILES): COc1cc(O)ccc1/C=C/C(=O)c1c(OC)cc2c(c1O)C=CC(C)(C)O2
- IC50 [1]: 32.1 µM
- IC50 [2]: 28.4 µM

Structure (SMILES): COc1cc2c(c(OC)c1C(=O)/C=C/c1ccccc1)C=CC(C)(C)O2
- IC50 [1]: 22.7 µM
- IC50 [2]: 20.4 µM

Structure (SMILES): COc1cc2c(c(O)c1C(=O)/C=C/c1ccc(N(C)C)cc1)C=CC(C)(C)O2
- IC50 [1]: > 200 µM
- IC50 [2]: 118 µM

Structure (SMILES): COc1ccc(/C=C/C(=O)c2c(OC)cc3c(c2O)C=CC(C)(C)O3)cc1Br
- IC50 [1]: 44.6 µM
- IC50 [2]: 35.6 µM

Structure (SMILES): COc1cc2c(c(OC)c1C(=O)/C=C/c1ccc(Cl)cc1)C=CC(C)(C)O2
- IC50 [1]: > 12.7 µM
- IC50 [2]: 9.04 µM

Structure (SMILES): COc1ccc(/C=C/C(=O)c2c(OC)cc3c(c2O)C=CC(C)(C)O3)cc1O
- IC50 [1]: 25 µM
- IC50 [2]: 18.3 µM

Structure (SMILES): COc1cc2c(c(O)c1C(=O)/C=C/c1ccc(N3CCN(C)CC3)cc1)C=CC(C)(C)O2
- IC50 [1]: 12.5 µM
- IC50 [2]: 13.5 µM

Structure (SMILES): COc1cc2c(c(O)c1C(=O)/C=C/c1cccc(OCc3ccccc3)c1)C=CC(C)(C)O2
- IC50 [1]: 189 µM
- IC50 [2]: 149 µM

Structure (SMILES): COc1cc2c(c(O)c1C(=O)/C=C/c1ccccc1O)C=CC(C)(C)O2
- IC50 [1]: 12.9 µM
- IC50 [2]: 10.9 µM

Structure (SMILES): O=c1[nH]cc(F)c(=O)[nH]1
- Activity [3]: Active

Structure (SMILES): COc1cc(/C=C/C(=O)c2c(OC)cc3c(c2O)C=CC(C)(C)O3)cc(OC)c1OC
- IC50 [1]: 25.4 µM
- IC50 [2]: 21.5 µM

Structure (SMILES): COc1cc2c(c(OC)c1C(=O)/C=C/c1ccc(O)cc1)C=CC(C)(C)O2
- IC50 [1]: 46.4 µM
- IC50 [2]: 25.6 µM

Structure (SMILES): COc1cc2c(c(O)c1C(=O)/C=C/c1cccc(Br)c1)C=CC(C)(C)O2
- IC50 [1]: 36.7 µM
- IC50 [2]: 35.9 µM

Structure (SMILES): COc1cc2c(c(O)c1C(=O)/C=C/c1ccc(N3CCCCC3)cc1)C=CC(C)(C)O2
- IC50 [1]: 200 µM
- IC50 [2]: > 200 µM

Structure (SMILES): COc1cc(/C=C/C(=O)c2c(OC)cc3c(c2O)C=CC(C)(C)O3)cc(OC)c1
- IC50 [1]: 24.9 µM
- IC50 [2]: 25.1 µM
